“Also recorded” adds a separate entry of the source.
Key:
LH cells = experiment: Ex vivo calcium imaging (RCaMP2), LH cells; format: cell-based, zebrafish
Procedure: (§1) Overall, whereas GnRH elicited a response in 95% of LH cells, only 56% of FSH cells responded to the treatment in the same fish (Figure 3E).
(§2) To functionally test the effect of CCK on gonadotroph activity, we applied the peptide (300 μl of 30 μg/ml CCK, 78.74 µM) to our ex vivo preparation and monitored the calcium response of the cells. […] The calcium response in FSH cells was highly synchronized (mean max cross-correlation coefficient, 0.7 ± 0.04; Figure 4B; Figure 4—figure supplement 1B). By contrast, the response of LH cells to CCK application was characterized by low mean of max cross-correlation coefficient values (0.43 ± 0.05; Figure 4B; Figure 4—figure supplement 1B).
(§3) Adult fish were euthanized using ice-cold water and decapitated. The head was transferred to ice-cold ACSF (124 mM NaCl, 3 mM KCl, 2 mM CaCl2, 2 mM MgSO4, 1.25 mM NaH2PO4, 26 mM NaHCO3, and 10 mM glucose (pH 7.2)) perfused with 5% CO2 and 95% O2. The heads were further dissected under a stereomicroscope. The ventral side of the head, including the jaw, gills, and mucus, was removed using fine forceps and microscissors, the optic nerves were cut and the eyes were removed. Next, the bone at the base of the skull that covers the pituitary (sella turcica) was removed using fine forceps. The head was placed in a dedicated chamber (Figure 3B) and stabilized with a slice anchor. The chamber had one inlet and one outlet, allowing for a constant flow of ACSF at a rate of 1 ml/min, and an additional inlet that was placed in proximity to the tissue for injections of stimuli. The total volume of ACSF in the chamber was 3 ml.
Imaging was performed in an inverted confocal fluorescent microscope (Leica SP8). R-CaMP2 activity was imaged at 4–10 Hz using the resonant scanner. The laser wavelength was 540 nm and the emission band was 630 nm. Images were taken using the 20x objective. Each imaging session lasted 10 min. Before and after each session, the tissue was imaged once for GFP (excitation, 488 nm, and emission, 530 nm) and R-CaMP2 (540 nm and 590 nm) in two separate channels. Images were processed using the Fiji program ([Schindelin et al., 2012]) for resolution using the Gaussian Blur filter and motion correction using the moco plugin ([Dubbs et al., 2016]).
(§4) To measure hormone secretion in response to salmon GnRH analogue (D-Ala6,Pro9-Net)-mammalian GnRH (Bachem Inc, Torrance, CA) or zebrafish CCK [D-Y-[SO3H]-L-G-W-M-D-F, synthesized by GL Biochem] stimulation, the medium was collected through the chamber outlet during the entire imaging session (10 ml per session in total). Each pituitary was imaged three times for 10 min: before, during, and after stimulation. The stimulus was applied manually as a pulse of 300 μl of 30 μg/μl (78.74 µM) peptide during the first 30 s of the imaging session. Hormones were measured in the fractions before and after stimulation using ELISA developed for common carp, which was established in the Levavi-Sivan lab using recombinant carp gonadotropins produced in yeast, and had been previously shown to be suitable for zebrafish ([Whitlock et al., 2019]).
Tissue viability was validated by monitoring the morphology and activity of the cells, looking at granulation and calcium changes. This specific preparation was also viable 2 hr after dissection, when all the cells responded to the different stimuli.
A composite of GFP-positive and RCaMP-positive cells was created to distinguish between LH and FSH cells. […]

FSH cells = experiment: Ex vivo calcium imaging (RCaMP2), FSH cells; format: cell-based, zebrafish; settings: 78.74 µM
Procedure: as §1, §2
as §3, with “The chamber had one inlet and one outlet, allowing for a constant flow of ACSF at a rate of 1 ml/min, and an additional inlet that was placed in proximity to the tissue for injections of stimuli. The total volume of ACSF in the chamber was 3 ml.” left out
as §4, with “Each pituitary was imaged three times for 10 min: before, during, and after stimulation. The stimulus was applied manually as a pulse of 300 μl of 30 μg/μl (78.74 µM) peptide during the first 30 s of the imaging session.” left out, “2019]). […]” for “2019]).”

LH secretion = experiment: Ex vivo LH secretion into perfused medium, ELISA; format: cell-based, zebrafish; settings: GnRH pulse 300 μl of 30 μg/μl, n=5, paired t-test
Description: (§5) The calcium response observed in LH and FSH cells upon GnRH and CCK stimulation indicates a preferential stimulatory effect of the neuropeptides on each cell type. The effect of these neuropeptides on LH and FSH secretion was examined in order to determine the functional outcome of the stimulation. For that, we collected the medium perfused through our ex vivo system (Figure 3A and B) during our calcium imaging assays. The medium was subsequently used to measure LH and FSH secretion using a specific ELISA validated for zebrafish GTHs ([Hollander-Cohen et al., 2018]).
(§6) Adult fish were euthanized using ice-cold water and decapitated. […]
as §4, with “Each pituitary was imaged three times for 10 min: before, during, and after stimulation. The stimulus was applied manually as a pulse of 300 μl of 30 μg/μl (78.74 µM) peptide during the first 30 s of the imaging session.” left out

FSH secretion = experiment: Ex vivo FSH secretion into perfused medium, ELISA; format: cell-based, zebrafish; settings: GnRH pulse 300 μl of 30 μg/μl (78.74 µM), n=5, paired t-test
Description: as §5, §6
as §4, with “Each pituitary was imaged three times for 10 min: before, during, and after stimulation. The stimulus was applied manually as a pulse of 300 μl of 30 μg/μl (78.74 µM) peptide during the first 30 s of the imaging session.” left out

FSH plasma levels = experiment: In vivo injection: FSH plasma levels (ELISA); design: species or system zebrafish; settings: intraperitoneal, 100 ng/g body weight, 2 hr; n=10; Fig 5C and D
Procedure: (§7) Six-month-old zebrafish (five males and five females) were injected intraperitoneally with the following: (1) fish CCK peptide [(D-Y[SO3H]-L-G-W-M-D-F-NH (2), synthesized by GL Biochem] at a concentration of 10 ng/g or 100 ng/g body weight, 2) salmon GnRH analogue (D-Ala6,Pro9-Net)-mammalian GnRH (Bachem Inc, Torrance, CA) at a concentration of 100 ng/g body weight, (3) similar volumes of saline. Two hours post-injection, the fish were sedated using MS-222, bled from the heart as previously described ([Biran et al., 2012]), and decapitated. Pituitaries were dissected under a stereomicroscope and placed in Total RNA Isolation Reagent (Trizol). From each fish, between 15 μl and 20 μl of blood was collected. The blood was centrifuged at 970 × g 30 min and the plasma was separated and stored at −20 °C. LH and FSH expression in the pituitary was measured using real-time PCR (see Figure 5—source data 1 for primer list). RNA extraction, reverse transcription of RNA, and real-time PCR were carried out as previously described ([Biran et al., 2008]). FSH secretion was measured in the plasma using ELISA for common carp, which was established in the Levavi Sivan lab using recombinant carp gonadotropins from in the yeast, and had been previously shown to be suitable for zebrafish ([Hollander-Cohen et al., 2018]).

[1] = tested on: LH expression in the pituitary; experiment: In vivo injection: LH expression in pituitary (real-time PCR); design: species or system zebrafish; settings: intraperitoneal, 100 ng/g body weight, 2 hr, n=10
Procedure: as §7

[2] = tested on: three types of GnRH receptors that exist in fish; design: method as in Zohar and Mylonas, 2001; settings: ref Zohar and Mylonas, 2001; cited from earlier work
[3] = tested on: FSH cells in pituitary cell culture; settings: ref Lin and Ge, 2009; cited from earlier work
Description: GnRH has long been considered the common stimulator of gonadotropin secretion in vertebrates. However, accumulating evidence for GnRH-independent FSH secretion in several mammalian species has questioned the regulatory role of GnRH ([McCann et al., 2001]; [Padmanabhan et al., 1997]; [Culler and Negro-Vilar, 1987]; [Pau et al., 1991]).

(D-Ala6,Pro9-Net)-mammalian GnRH
calcium transient average half width, LH cells (LH cells; ex vivo brain-pituitary preparation, GnRH puff 78.74 µM, pH 7.2 ACSF, Fig 3-supplement 2: mean of 20 cell traces per fish, 3 females, 3 males): 48.6 s
calcium response to GnRH, LH cells (LH cells; ex vivo, GnRH 78.74 µM, n=10): synchronized increase of calcium in all luteinizing hormone (LH) cells; also recorded: strong and slow calcium rise
calcium transient average amplitude, LH cells (LH cells; ex vivo, GnRH puff 78.74 µM, Fig 3-supplement 2: mean of 20 cell traces per fish, 3 females, 3 males): 1.99 ∆F/F
percentage of cells responsive to GnRH stimulus, LH cells (LH cells; ex vivo, GnRH puff 78.74 µM, coefficient values higher than the 80 percentiles of basal values, n=10 (3 males, 7 females), p<0.001 vs FSH cells): 95%
mean of max cross-correlation coefficient of calcium traces, LH cells (LH cells; ex vivo, after GnRH puff 78.74 µM, basal 0.26 ± 0.02, n=10 (3 males, 7 females), mean ± SEM, p<0.0001): 0.66 ± 0.05
calcium response to GnRH, FSH cells (FSH cells; GnRH 300 μl, n=10): partial increase in follicle-stimulating hormone (FSH) cells; also recorded: inconsistent response of FSH cells
percentage of cells responsive to GnRH stimulus, FSH cells (FSH cells; GnRH puff 300 μl, coefficient values higher than the 80 percentiles of basal values, same fish, n=10 (3 males, 7 females)): 56%
fish displaying an increase in cross-correlation values from the basal state, FSH cells (FSH cells; GnRH puff 300 μl, percent of fish, n=10): 50%
LH secretion response to GnRH (LH secretion): significant rise in LH secretion
FSH secretion response to GnRH (FSH secretion): not significant from the basal secretion
FSH expression and secretion response to GnRH injection (FSH plasma levels): did not reach statistical significance
LH expression in the pituitary after GnRH injection [1]: only affected LH expression in the pituitary; also recorded: Expression level increased significantly only in response to GnRH injection
binding to fish GnRH receptors [2]: effectively binds to the three types of GnRH receptors that exist in fish
FSH cells response to GnRH stimuli in pituitary cell culture [3]: lack of FSH cells response to GnRH stimuli in pituitary cell culture
